For the experiment, the system named is Rattus norvegicus. The experiment in a line: Antihyperglycemic activity in normal albino rat sucrose-loaded model assessed as inhibition of postprandial rise in blood glucose level at 100 mg/kg, po pretreated 30 mins before sucrose challenge measured for 2 hrs during oral glucose tolerance test. It counts as functional. More on the design: scale not given: the % may be the effect or the level left.
Take `O=C(NCC1SC(=O)NC1=O)NS(=O)(=O)c1ccc(Br)cc1Br` (centres undefined): the Activity was found to be 8.66%. Under `O=C(NCC1SC(=O)NC1=O)NS(=O)(=O)c1ccc(Cl)cc1` (centres undefined) stands 17.2%. Next, `O=C(NCC1SC(=O)NC1=O)NS(=O)(=O)c1ccc(F)cc1` (centres undefined): 10.7%; `CN(C)C(=N)NC(=N)N` [METFORMIN]: 27%; `O=C(NCC1SC(=O)NC1=O)NS(=O)(=O)c1ccc(Br)cc1` (centres undefined): 9.44%. Take `O=C(NCC1SC(=O)NC1=O)NS(=O)(=O)c1ccccc1` (centres undefined): the Activity turned out to be 15.8%. For `O=C(NCC1SC(=O)NC1=O)NS(=O)(=O)c1ccc(Cl)cc1Cl` (centres undefined), the Activity was 14.3%. Consider `O=C(NCC1SC(=O)NC1=O)NS(=O)(=O)c1cc(Cl)ccc1Cl` (centres undefined), for which the Activity came to 16.5%. Next, `Cc1ccc(S(=O)(=O)NC(=O)NCC2SC(=O)NC2=O)cc1` (centres undefined): 11.5%.

These data come from ChEMBL document CHEMBL1933014, “Synthesis and antihyperglycemic evaluation of new 2,4-thiazolidinediones having biodynamic aryl sulfonylurea moieties” (2012).
